Measured values reported in US20240092782A1, “TRICYCLIC PESTICIDAL COMPOUNDS” (BASF SE, priority 2021, published 2024).

Assays:
Format in all cases: in vivo
[1] = tested on: boll weevil (Anthonomus grandis); assay: Boll weevil (Anthonomus grandis) egg and larval mortality, insect diet microtiter plate; details: 120 h, egg and larval mortality after 5 days, read-out: mortality in comparison with untreated controls
Method: Boll Weevil (Anthonomus grandis)
(§1) For evaluating control of boll weevil (Anthonomus grandis) the test unit consisted of 96-well-microtiter plates containing an insect diet and 5-10 A. grandis eggs. The compounds were formulated using a solution containing 75% v/v water and 25% v/v DMSO. Different concentrations of formulated compounds were sprayed onto the insect diet at 5 μl, using a custom built micro atomizer, at two replications. After application, microtiter plates were incubated at about 25±1° C. and about 75±5% relative humidity for 5 days. Egg and larval mortality was then visually assessed.

[2] = tested on: tobacco budworm (Heliothis virescens); assay: whole plant or invertebrate; details: 120 h, egg and larval mortality after 5 days, read-out: mortality in comparison with untreated controls
Method: Tobacco Budworm (Heliothis virescens)
as §1, with “of tobacco budworm (Heliothis virescens)” for “of boll weevil (Anthonomus grandis)”, “and 15-25 H. virescens” for “and 5-10 A. grandis”, “at 10” for “at 5”, “about 28±1°” for “about 25±1°”, “about 80±5%” for “about 75±5%”

[3] = tested on: yellow fever mosquito (Aedes aegypti); assay: whole plant or invertebrate; details: 48 h, larval mortality after 2 days, read-out: mortality in comparison with untreated controls
Method: Yellow Fever Mosquito (Aedes aegypti)
For evaluating control of yellow fever mosquito (Aedes aegypti) the test unit consisted of 96-well-microtiter plates containing 200 μl of tap water per well and 5-15 freshly hatched A. aegypti larvae. The active compounds were formulated using a solution containing 75% (v/v) water and 25% (v/v) DMSO. Different concentrations of formulated compounds or mixtures were sprayed onto the insect diet at 2.5 μl, using a custom built micro atomizer, at two replications. After application, microtiter plates were incubated at 28+1° C., 80+5% RH for 2 days. Larval mortality was then visually assessed.

[4] = tested on: Green Peach Aphid (Myzus persicae); assay: whole plant or invertebrate; details: 120 h, aphid mortality after 5 days, read-out: mortality in comparison with untreated controls
Method: Green Peach Aphid (Myzus persicae)
The 10,000 ppm solution was serially diluted in 100% cyclohexanone to make interim solutions. These served as stock solutions for which final dilutions were made by the Tecan in 50% acetone:50% water (v/v) into 10 or 20 ml glass vials. A nonionic surfactant (Kinetic®) was included in the solution at a volume of 0.01% (v/v). The vials were then inserted into an automated electrostatic sprayer equipped with an atomizing nozzle for application to plants/insects. Bell pepper plants at the first true-leaf stage were infested prior to treatment by placing heavily infested leaves from the main colony on top of the treatment plants. Aphids were allowed to transfer overnight to accomplish an infestation of 30-50 aphids per plant and the host leaves were removed. The infested plants were then sprayed by an automated electrostatic plant sprayer equipped with an atomizing spray nozzle. The plants were dried in the sprayer fume hood, removed, and then maintained in a growth room under fluorescent lighting in a 14:10 light:dark photoperiod at about 25° C. and about 20-40% relative humidity. Aphid mortality on the treated plants, relative to mortality on untreated control plants, was determined after 5 days.

[5] = tested on: Red Spider Mite (Tetranychus kanzawai); assay: Red spider mite (Tetranychus kanzawai) mortality on sprayed cowpea beans; details: 72 hours after treatment, read-out: mortality in comparison with untreated controls
Method: Red Spider Mite (Tetranychus kanzawai)
The active compound of formula ( ))s dissolved at the desired concentration in a mixture of 1:1 (vol:vol) distilled water:acetone. Add surfactant (Kinetic) is added at a rate of 0.01% (vol/vol).The test solution is prepared at the day of use. Potted cowpea beans of 4-5 days of age are cleaned with tap water and sprayed with 1-2 ml of the test solution using air driven DeVilbiss® hand atomizer at 20-30 psi (≈1.38 to 2.07 bar). The treated plants are allowed to air dry and afterwards inoculated with 30 or more mites by clipping a cassava leaf section from rearing population. Treated plants are placed inside a holding room at about 25-26° C. and about 65-70% relative humidity. Estimate percent mortality is assessed 72 hours after treatment.

CCS(=O)(=O)c1cc(Br)cnc1-c1nc2cc(C(F)(F)F)n3ncnc3c2n1C [I.2, 8-(5-bromo-3-(ethylsulfonyl)pyridin-2-yl)-9-methyl-5-(trifluoromethyl)-9H-imidazo[4,5-c][1,2,4]triazolo[1,5-a]pyridine]
> 70%: mortality at 30 ppm ([1]; 30 ppm) | mortality at 10 ppm ([2]; 10 ppm) | mortality at 10 ppm ([3]; 10 ppm) | mortality at 10 ppm ([4]; 10 ppm) | mortality at 10 ppm ([5]; 10 ppm)

CCS(=O)(=O)c1cc(N=S(C)(C)=O)cnc1-c1cn2c(cc(C(F)(F)F)n3ccnc32)n1 [I.24, [5-ethylsulfonyl-6-[7-(trifluoromethyl)-1,3,6,10-tetrazatricyclo[7.3.0.02,6]dodeca-2,4,7,9,11-pentaen-11-yl]-3-pyridyl]imino-dimethyl-oxo-λ6-sulfane]
> 70%: mortality at 800 ppm [1] | mortality at 800 ppm [5]

CCS(=O)(=O)c1cc(Br)ccc1-c1nc2cc(C(F)(F)F)n3ncnc3c2n1C [I.8, 11-(4-bromo-2-ethylsulfonyl-phenyl)-12-methyl-7-(trifluoromethyl)-3,5,6,10,12-pentazatricyclo[7.3.0.02,6]dodeca-1(9),2,4,7,10-pentaene]
> 70%: mortality at 800 ppm [1] | mortality at 800 ppm ([2]; 800 ppm) | mortality at 800 ppm ([3]; 800 ppm) | mortality at 800 ppm ([4]; 800 ppm) | mortality at 800 ppm [5]
